# Earlier results as cited in patent publication EP0424553A1, “Substituted phenoxy alkanols for treatment of contact hypersensitivity” (priority 1989, dated 1991).
# Key:
# rat mast cells = conditions: mediated by IgE- anti-IgE reaction
# [1] = tested on: anaphylactic histamine release; conditions: compared with chlorphenesin
compound,measurement,setting,value
O=C(O)c1cc(=O)c2c(OCC(O)COc3cccc4oc(C(=O)O)cc(=O)c34)cccc2o1 [cromolyn sodium],degranulation of the rat mast cells,rat mast cells,inhibited
chlorphenesin succinate,anaphylactic histamine release-preventive effect,[1],much superior to chlorphenesin
